Earlier results in patent US12029808B2, “Kit and method for dyeing keratinous material by means of aminosilicone and a chromophoric compound” (Henkel AG & Co. KGaA, priority 2019, dated 2024).

settings: 25° C.

| Molecule | solubility in water (in words) | solubility in water |
| --- | --- | --- |
| O=C([O-])c1c(Cl)c(Cl)c(Cl)c(Cl)c1-c1c2c(Br)cc(=O)c(Br)c-2oc2c(Br)c(O)cc(Br)c12.O=C([O-])c1c(Cl)c(Cl)c(Cl)c(Cl)c1-c1c2c(Br)cc(=O)c(Br)c-2oc2c(Br)c(O)cc(Br)c12.[Na+].[Na+] [Acid Red 92, disodium salt of 3,4,5,6-tetrachloro-2-(1,4,5,8-tetrabromo-6-hydroxy-3-oxoxanthen-9-yl)benzoic acid] |  | greater than 10 g/L |
| O=S(=O)([O-])c1ccc(N=Nc2c(O)ccc3ccccc23)cc1.[Na+] [Acid Orange 7, sodium salt of 4-[(2-hydroxy-1-naphthyl)azo]benzene sulphonate] |  | more than 7 g/L |

Further lines, results first:

| solubility in water (in words) | solubility in water | Molecule |
| --- | --- | --- |
| highly soluble in water |  | O=C([O-])C1=NN(c2ccc(S(=O)(=O)[O-])cc2)C(=O)C1N=Nc1ccc(S(=O)(=O)[O-])cc1.[Na+].[Na+].[Na+] (stereo not drawn) [Acid Yellow 23, trisodium salt of 4,5-dihydro-5-oxo-1-(4-sulfophenyl)-4-((4-sulfophenyl)azo)-1H-pyrazole-3-carboxylic acid] |
|  | 2.5 mg/mL | Nc1cc(S(=O)(=O)[O-])cc2cc(S(=O)(=O)[O-])c(N=Nc3ccccc3)c(O)c12.[Na+].[Na+] [Acid Red 33, diantrium salt of 5-amino-4-hydroxy-3-(phenylazo)-naphthalene-2,7-disulphonate] |
|  | more than 20 wt. % | CCN(Cc1cccc(S(=O)(=O)[O-])c1)c1ccc(C(=C2C=CC(=[N+](CC)Cc3cccc(S(=O)(=O)[O-])c3)C=C2)c2ccccc2S(=O)(=O)[O-])cc1.[Na+].[Na+] [Acid Blue 9] |
|  | 20 mg/mL | mixture of the sodium salts of mono- and sisulfonic acids of 2-(2-quinolyl)-1H-indene-1,3(2H)-dione [Acid Yellow 3] |
